Laboratory results published in patent US20260207585A1, “METHODS AND COMPOSITIONS FOR THE TREATMENT OF PARKINSON'S DISEASE, HUNTINGTON'S DISEASE, AMYOTROPHIC LATERAL SCLEROSIS, AND LEARNING DISORDERS” (Cedars-Sinai Medical Center, priority 2022, published 2026).
Read-outs that look alike come from different tables or passages of the source.

What was measured:
[1] = tested on: PSD95; assay: PSD95 irradiance in brain; set-up: species or system mice; conditions: mouse, in vivo
[2] = tested on: wildtype and AD model (APP/PS1-transgenic) mice; assay: Y-Maze test; assay type: in vivo
Description: The effects of single and repeated ETP69 injections in mice were tested. The experimental timeline is depicted in FIG. 5. Three parallel injection conditions were tested: a single ETP69 condition, a boosted ETP69 injection, and repeated ETP69 injections. The single injection mice received one injection of ETP69 or DMSO at Day 0. The mice that received a boosted injection received one injection of ETP69 or DMSO at day 0 and one injection at day 9. The mice that received repeated injections received 11 injections of ETP69 or DMSO at day 0 or day 9. Both wildtype and AD model (APP/PS1-transgenic) mice were tested.
Treatment with ETP69 restored CNS-related locomotor, visual, cognitive functions (FIGS. 6A-611). First, the effects of ETP69 on cognitive and visual protection was tested using the Y-Maze test.

[3] = target: T1, PRMT7 (Homo sapiens, UniProt Q9NVM4); assay: Methyltransferase inhibition panel: PRMT7; assay type: biochemical
T1 sequence (Q9NVM4 1-692): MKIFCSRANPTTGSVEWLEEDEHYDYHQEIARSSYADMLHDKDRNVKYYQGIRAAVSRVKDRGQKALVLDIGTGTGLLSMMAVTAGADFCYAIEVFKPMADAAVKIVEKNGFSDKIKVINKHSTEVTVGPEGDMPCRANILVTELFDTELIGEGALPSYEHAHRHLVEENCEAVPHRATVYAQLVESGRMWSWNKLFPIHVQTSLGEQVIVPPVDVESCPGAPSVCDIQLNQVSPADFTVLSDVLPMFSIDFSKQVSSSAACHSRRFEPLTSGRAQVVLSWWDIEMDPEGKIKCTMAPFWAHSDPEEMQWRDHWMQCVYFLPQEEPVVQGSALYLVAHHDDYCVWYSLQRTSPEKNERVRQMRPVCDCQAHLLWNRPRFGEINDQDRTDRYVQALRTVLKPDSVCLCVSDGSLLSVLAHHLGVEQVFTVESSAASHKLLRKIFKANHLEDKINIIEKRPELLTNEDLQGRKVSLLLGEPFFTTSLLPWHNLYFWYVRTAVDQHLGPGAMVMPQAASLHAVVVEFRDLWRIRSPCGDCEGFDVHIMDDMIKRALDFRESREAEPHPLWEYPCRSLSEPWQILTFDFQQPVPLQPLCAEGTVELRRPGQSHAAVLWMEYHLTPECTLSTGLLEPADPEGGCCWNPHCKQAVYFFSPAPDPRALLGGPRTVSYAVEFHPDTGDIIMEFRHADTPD
Description: (§1) The ability of ETP69 to inhibit methyltransferases was tested.

[4] = target: SETD2 (Homo sapiens, UniProt Q9BYW2); assay: Methyltransferase inhibition panel: SETD2; assay type: biochemical
Description: as §1

[5] = target: EZH2(Y641F) Complex (Homo sapiens, UniProt Q15910, Y641F); assay: Methyltransferase inhibition panel: EZH2(Y641F) Complex; assay type: biochemical; conditions: NT1721 20 μM; substrate Core Histone 0.05 mg/mL
Description: as §1

[6] = target: SETDB1 (Homo sapiens, UniProt Q15047); assay: Methyltransferase inhibition panel: SETDB1; assay type: biochemical
Description: as §1

[7] = target: T2, NRMT1 (Homo sapiens, UniProt Q9BV86); assay: Methyltransferase inhibition panel: NRMT1; assay type: biochemical
T2 sequence (Q9BV86 1-223): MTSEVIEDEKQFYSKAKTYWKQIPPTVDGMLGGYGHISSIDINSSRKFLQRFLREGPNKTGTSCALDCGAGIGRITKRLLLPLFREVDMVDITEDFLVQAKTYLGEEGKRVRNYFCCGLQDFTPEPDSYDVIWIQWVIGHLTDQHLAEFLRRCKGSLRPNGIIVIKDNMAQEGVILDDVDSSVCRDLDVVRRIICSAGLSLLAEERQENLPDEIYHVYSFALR
Description: as §1

[8] = tested on: BDNF and VGF pathways; assay: Gene expression in treated mice (BDNF and VGF pathways); assay type: in vivo; conditions: mice treated with ETP69 vs DMSO
Description: Gene expression was measured in mice treated with ETP69 and DMSO. As depicted in FIG. 3, genes in the BDNF and VGF pathways were activated. These pathways are consistent with protective neurotrophic support. This pathway correlates with reduced H3K9me3 and improved cognition. FIG. 4A depicts genes in the BDNF pathway inhibited (left) and activated (right) by ETP69. The inactivated genes are quantified in FIGS. 4B-4F. The activated genes are quantified in FIGS. 4G-4M.

[9] = tested on: ionized calcium-binding adaptor molecule 1 (Iba-1); assay: Iba-1 immunoreactivity (microgliosis) in cerebral cortex; assay type: in vivo; conditions: neurodegenerative mice
Description: The effects of ETP69 on cerebral H3K9me3 levels was tested in old mice, in both a neurodegenerative model and WT siblings. The levels of brain H3K9me3 at days 4 (short-term) and 15 (long-term) following i.p. ETP69 injection (S regimen cohorts) were measured. […] These findings indicate that a single dose of ETP69 is sufficient to sustainably reduce H3K9me3 in the brains of old WT and neurodegenerative mice. Consistent with the observations in 18-month-old mice, ETP69 mitigated neuroinflammation, including by reduced ionized calcium-binding adaptor molecule 1 (Iba-1)^+ microgliosis in neurodegenerative mice (40%, p=0.0021; FIG. 16D).

[10] = target: SUV420H1TV2 (Homo sapiens, UniProt Q4FZB7); assay: Methyltransferase inhibition panel: SUV420H1TV2; assay type: biochemical
Description: as §1

[11] = target: PRMT6 (Homo sapiens, UniProt Q96LA8); assay: Methyltransferase inhibition panel: PRMT6; assay type: biochemical; conditions: NT1721 20 μM, substrate GST-GAR 5 μM
Description: as §1

[12] = NT1721 20 μM, substrate GST-GAR 5 μM
[13] = NT1721 20 μM, substrate Nucleosomes 0.05 mg/mL
[14] = read-out: Enzyme % Activity (relative to DMSO controls) Data 1
[15] = read-out: Enzyme % Activity (relative to DMSO controls) Data 2

Chain of SETD2 (Q9BYW2 whole entry): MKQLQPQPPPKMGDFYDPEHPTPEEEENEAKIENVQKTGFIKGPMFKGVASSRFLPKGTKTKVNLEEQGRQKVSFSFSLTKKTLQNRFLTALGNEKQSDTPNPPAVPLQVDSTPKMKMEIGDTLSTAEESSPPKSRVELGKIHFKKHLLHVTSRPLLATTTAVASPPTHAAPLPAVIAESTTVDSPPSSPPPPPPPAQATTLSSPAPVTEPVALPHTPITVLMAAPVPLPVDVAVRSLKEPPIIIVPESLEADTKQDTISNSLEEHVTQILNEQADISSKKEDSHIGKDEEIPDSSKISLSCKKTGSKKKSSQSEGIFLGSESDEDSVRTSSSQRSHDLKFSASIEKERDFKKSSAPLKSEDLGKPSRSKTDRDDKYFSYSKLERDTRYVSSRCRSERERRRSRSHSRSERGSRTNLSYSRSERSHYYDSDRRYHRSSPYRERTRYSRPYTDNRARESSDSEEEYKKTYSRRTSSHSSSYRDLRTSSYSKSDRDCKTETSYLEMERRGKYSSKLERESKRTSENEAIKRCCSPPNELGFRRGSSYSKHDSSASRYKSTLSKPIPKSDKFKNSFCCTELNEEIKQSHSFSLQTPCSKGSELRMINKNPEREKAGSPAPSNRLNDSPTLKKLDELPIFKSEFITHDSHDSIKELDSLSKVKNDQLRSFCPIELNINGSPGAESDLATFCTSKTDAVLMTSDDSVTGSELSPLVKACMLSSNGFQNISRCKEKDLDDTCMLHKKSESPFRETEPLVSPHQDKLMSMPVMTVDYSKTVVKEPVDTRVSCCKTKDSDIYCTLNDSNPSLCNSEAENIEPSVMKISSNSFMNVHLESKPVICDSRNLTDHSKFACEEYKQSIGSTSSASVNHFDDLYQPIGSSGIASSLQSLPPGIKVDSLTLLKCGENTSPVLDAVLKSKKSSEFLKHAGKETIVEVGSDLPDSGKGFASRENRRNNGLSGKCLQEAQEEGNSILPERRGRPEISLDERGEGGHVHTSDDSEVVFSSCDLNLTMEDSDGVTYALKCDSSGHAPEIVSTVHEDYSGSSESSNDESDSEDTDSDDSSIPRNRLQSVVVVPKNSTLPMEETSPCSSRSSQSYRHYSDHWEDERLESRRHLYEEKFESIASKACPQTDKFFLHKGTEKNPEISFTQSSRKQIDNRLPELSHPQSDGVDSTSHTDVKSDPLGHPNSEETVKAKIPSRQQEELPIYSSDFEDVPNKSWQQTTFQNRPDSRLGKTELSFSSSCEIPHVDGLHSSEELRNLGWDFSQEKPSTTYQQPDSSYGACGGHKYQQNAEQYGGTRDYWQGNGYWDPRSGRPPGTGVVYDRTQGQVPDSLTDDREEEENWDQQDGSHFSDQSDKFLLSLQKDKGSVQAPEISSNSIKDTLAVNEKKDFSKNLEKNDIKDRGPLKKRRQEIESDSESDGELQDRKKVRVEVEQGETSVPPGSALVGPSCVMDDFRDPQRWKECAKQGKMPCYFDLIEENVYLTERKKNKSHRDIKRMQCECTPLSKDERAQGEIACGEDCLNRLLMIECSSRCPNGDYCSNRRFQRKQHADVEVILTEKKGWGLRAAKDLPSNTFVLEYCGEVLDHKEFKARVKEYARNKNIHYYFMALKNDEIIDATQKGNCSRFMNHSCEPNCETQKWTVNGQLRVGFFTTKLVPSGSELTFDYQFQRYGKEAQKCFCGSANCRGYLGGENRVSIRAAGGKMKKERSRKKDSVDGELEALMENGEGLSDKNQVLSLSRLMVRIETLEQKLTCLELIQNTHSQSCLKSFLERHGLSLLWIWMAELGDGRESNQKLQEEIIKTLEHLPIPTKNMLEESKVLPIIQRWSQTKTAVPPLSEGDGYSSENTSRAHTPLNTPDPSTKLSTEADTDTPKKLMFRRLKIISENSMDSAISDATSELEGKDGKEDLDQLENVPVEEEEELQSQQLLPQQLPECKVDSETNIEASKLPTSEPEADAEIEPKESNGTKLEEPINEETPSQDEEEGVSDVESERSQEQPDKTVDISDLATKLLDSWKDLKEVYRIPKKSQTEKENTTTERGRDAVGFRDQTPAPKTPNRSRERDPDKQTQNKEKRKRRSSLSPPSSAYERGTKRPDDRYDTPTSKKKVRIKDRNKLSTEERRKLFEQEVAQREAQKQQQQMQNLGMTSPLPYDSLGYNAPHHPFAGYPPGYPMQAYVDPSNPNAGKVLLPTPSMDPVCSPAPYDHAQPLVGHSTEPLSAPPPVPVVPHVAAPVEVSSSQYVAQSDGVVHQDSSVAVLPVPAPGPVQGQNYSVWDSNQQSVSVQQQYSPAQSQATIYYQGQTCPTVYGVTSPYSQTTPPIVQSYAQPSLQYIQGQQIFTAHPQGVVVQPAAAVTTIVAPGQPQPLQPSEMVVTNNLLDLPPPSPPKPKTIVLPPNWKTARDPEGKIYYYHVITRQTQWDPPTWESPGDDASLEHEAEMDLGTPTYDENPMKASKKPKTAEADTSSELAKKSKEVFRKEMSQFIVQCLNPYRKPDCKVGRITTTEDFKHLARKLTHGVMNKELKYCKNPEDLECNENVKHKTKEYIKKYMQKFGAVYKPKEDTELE
Chain of SUV420H1TV2 (Q4FZB7 1-393 isoform Q4FZB7-2): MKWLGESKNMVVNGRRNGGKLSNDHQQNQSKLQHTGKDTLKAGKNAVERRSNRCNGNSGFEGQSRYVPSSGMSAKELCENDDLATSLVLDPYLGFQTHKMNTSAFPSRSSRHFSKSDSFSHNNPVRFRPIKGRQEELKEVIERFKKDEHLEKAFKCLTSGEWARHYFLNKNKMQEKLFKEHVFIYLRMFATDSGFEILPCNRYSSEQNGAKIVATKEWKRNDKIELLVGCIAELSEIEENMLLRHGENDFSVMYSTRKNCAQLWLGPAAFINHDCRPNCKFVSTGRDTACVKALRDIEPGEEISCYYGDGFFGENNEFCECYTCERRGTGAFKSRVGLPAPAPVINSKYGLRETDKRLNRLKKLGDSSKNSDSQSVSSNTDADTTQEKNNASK
Chain of PRMT6 (Q96LA8 whole entry): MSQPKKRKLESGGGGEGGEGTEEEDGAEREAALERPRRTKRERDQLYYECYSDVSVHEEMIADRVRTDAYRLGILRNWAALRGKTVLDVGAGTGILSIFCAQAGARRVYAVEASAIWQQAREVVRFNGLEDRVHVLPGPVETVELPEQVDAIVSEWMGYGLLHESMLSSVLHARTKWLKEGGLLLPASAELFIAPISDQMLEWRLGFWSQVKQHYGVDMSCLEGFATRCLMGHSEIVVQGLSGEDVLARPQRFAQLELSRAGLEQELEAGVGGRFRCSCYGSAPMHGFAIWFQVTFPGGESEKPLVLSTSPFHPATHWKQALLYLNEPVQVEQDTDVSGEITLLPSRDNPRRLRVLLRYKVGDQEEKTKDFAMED

**Q.** Which results are given for `CN1C(=O)[C@@]23C[C@](C)(C#N)[C@H](c4ccc5c(c4)OCO5)N2C(=O)[C@]1(C)SS3` (racemic) [ETP69, Rac-(3S,6S,7S,8aS)-6-(benzo[d][1,3]dioxol-5-yl)-2,3,7-trimethyl-1,4-dioxohexahydro-6H-3,8a-epidithiopyrrolo[1,2-a]pyrazine-7-carbonitrile]?
**A.** expression of PSD95 irradiance [1]: increased; percent alternation ([2]; AD+ mice vs AD+ DMSO): significant increase; number of total entries (locomotor activity) ([2]; wildtype and AD+ mice): decreased; Enzyme % Activity (relative to DMSO controls) Data 1 [3, 12]: 66.70%; Enzyme % Activity (relative to DMSO controls) Data 2 [3, 12]: 66.73%; inhibition relative to DMSO controls ([3]; summary of Table 1): at least 7500; Enzyme % Activity (relative to DMSO controls) Data 1 [4, 13]: 20.95%; Enzyme % Activity (relative to DMSO controls) Data 2 [4, 13]: 22.89%; inhibition relative to DMSO controls ([4]; summary of Table 1): at least 7500; Enzyme % Activity (relative to DMSO controls) Data 1 [5]: 102.54%; Enzyme % Activity (relative to DMSO controls) Data 2 [5]: 102.95%; remaining activity at 20 µM [6, 14]: 40.1%; remaining activity at 20 µM [6, 15]: 37.1%; inhibition relative to DMSO controls ([6]; summary of Table 1): at least 7500; remaining activity at 20 µM [7, 14]: 90.5%; remaining activity at 20 µM [7, 15]: 94.6%; genes in the BDNF and VGF pathways [8]: activated; reduction of Iba-1+ microgliosis [9]: 40%; remaining activity at 20 µM [10, 14]: 91.5%; remaining activity at 20 µM [10, 15]: 90%; remaining activity at 20 µM [11, 14]: 128%; remaining activity at 20 µM [11, 15]: 129%
